Measurements reported in patent US6777412B2 (priority 1990, dated 2004).
Where two headings read alike, the source gives them in different places. Marks after values point to notes of the source that are not given here.

How the values were obtained:
Assay type in all cases: in vivo
[1] = test system: Phytophthora infestans lycopersici
[2] = test system: Erysiphe graminis hordei; experiment: Foliar fungal disease test on plants: Erysiphe graminis hordei (Egh)
Protocol: (§1) The compounds were tested against a variety of foliar fungal diseases of plants. The technique employed was as follows.
(§2) The plants were grown in John Innes Potting Compost (No.1 or 2) in 4 cm diameter minipots. The test compounds were formulated either by bead milling with aqueous Dispersol T or as a solution in acetone or acetone/ethanol which was diluted to the required concentration immediately before use. For the foliage diseases, the formulations (100 ppm active ingredient except where otherwise indicated) were sprayed onto the foliage and applied to the roots of the plants in the soil. The sprays were applied to maximum retention and the root drenches to a final concentration equivalent to approximately 40 ppm a.i. in dry soil. Tween 20, to give a final concentration of 0.05%, was added when the sprays were applied to cereals.
(§3) For most of the tests the compound was applied to the soil (roots) and to the foliage (by spraying) one or two days before the plant was inoculated with the disease. An exception was the test on Erysiphe graminis in which the plants were inoculated 24 hours before treatment. Foliar pathogens were applied by spray as spore suspensions onto the leaves of test plants. After inoculation, the plants were put into an appropriate environment to allow infection to proceed and then incubated until the disease was ready for assessment. The period between inoculation and assessment varied from four to fourteen days according to the disease and environment.
(§4) The disease control vas recorded by the following grading:
(§5) 3=trace-5% of disease on untreated plants
(§6) 2=6-25% of disease on untreated plants
(§7) 1=26-59% of disease on untreated plants
(§8) 0=60-100% of disease on untreated plants
Egh Erysiphe graminis hordei

[3] = test system: Thanatephorus cucumeris; experiment: Foliar fungal disease test on plants: Thanatephorus cucumeris (Tc)
Protocol: as §1, §2, §3, §4, §5, §6, §7, §8
Tc Thanatephorus cucumeris

[4] = test system: Pyricularia oryzae
[5] = test system: Septoria nodorum; experiment: Foliar fungal disease test on plants: Septoria nodorum (Sn)
Protocol: as §1, §2, §3, §4, §5, §6, §7, §8

[6] = test system: Plasmopara viticola; experiment: Foliar fungal disease test on plants: Plasmopara viticola (Pv)
Procedure, shortened: (§9)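 Potted plants treated by foliar spray to maximum retention (100 ppm a.i. unless stated) plus root drench (~40 ppm a.i. in dry soil), with 0.05% Tween 20 on cereals, one or two days before spore-suspension inoculation.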

[7] = test system: Venturia inaequalis; experiment: Foliar fungal disease test on plants: Venturia inaequalis (Vi)
Procedure, shortened: as §9

[8] = test system: Puccinia recondita; experiment: Foliar fungal disease test on plants: Puccinia recondita (Pr)
Procedure, shortened: as §9

[9] = test system: Erysiphe graminis tritici; experiment: Foliar fungal disease test on plants: Erysiphe graminis tritici (Egt); settings: 100 ppm active ingredient foliar spray plus root drench (approx. 40 ppm a.i. in dry soil); plants inoculated 24 hours before treatment
Protocol: as §1, §2, §3, §4, §5, §6, §7, §8
Egt Erysiphe graminis tritici

[10] = 100 ppm active ingredient foliar spray plus root drench (approx. 40 ppm a.i. in dry soil), one or two days before inoculation
[11] = 100 ppm active ingredient foliar spray plus root drench (approx. 40 ppm a.i. in dry soil), plants inoculated 24 hours before treatment

Structure (SMILES) | disease control grading, Pil (Phytophthora infestans lycopersici) ([1]; 10 ppm foliar application only) | disease control grading, Egh (Erysiphe graminis hordei) ([2]; 10 ppm foliar application only) | disease control grading, Tc (Thanatephorus cucumeris) ([3]; 10 ppm foliar application only) | disease control grading, Po (Pyricularia oryzae) ([4]; 10 ppm foliar application only) | disease control grading, Sn (Septoria nodorum) ([5]; 10 ppm foliar application only) | disease control grading, Pv (Plasmopara viticola) ([6]; 10 ppm foliar application only) | disease control grading, Vi (Venturia inaegualis) ([7]; 10 ppm foliar application only) | disease control grading, Pr (Puccinia recondita) ([8]; 10 ppm foliar application only) | disease control grading, Pil (Phytophthora infestans lycopersici) [1, 10] | disease control grading, Egh (Erysiphe graminis hordei) [2, 11] | disease control grading, Tc (Thanatephorus cucumeris) [3, 10] | disease control grading, Po (Pyricularia oryzae) [4, 10] | disease control grading, Pv (Plasmopara viticola) [6, 10] | disease control grading, Vi (Venturia inaegualis) [7, 10] | disease control grading, Pr (Puccinia recondita) [8, 10] | disease control grading, Sn (Septoria nodorum) [5, 10] | disease control grading, Egt (Erysiphe graminis tritici) [9]
CO/C=C(/C(=O)OC)c1ccccc1Oc1cc(OCc2c(Cl)cccc2C(F)(F)F)ncn1 [383 of Table I] | 0^a (0=60-100% of disease on untreated plants) | 0^a (0=60-100% of disease on untreated plants) | 4^a (4=no disease) | 0^a (0=60-100% of disease on untreated plants) | 4^a (4=no disease) | 4^a (4=no disease) | 3^a (3=trace-5% of disease on untreated plants) | 4^a (4=no disease) | – | – | – | – | – | – | – | – | –
CO/C=C(/C(=O)OC)c1ccccc1Oc1cc(OCc2ccc([N+](=O)[O-])cc2)ncn1 [133 of Table I] | – | – | – | – | – | – | – | – | 0 (0=60-100% of disease on untreated plants) | 4 (4=no disease) | 4 (4=no disease) | 3 (3=trace-5% of disease on untreated plants) | 4 (4=no disease) | 3 (3=trace-5% of disease on untreated plants) | 4 (4=no disease) | – | –
CO/C=C(/C(=O)OC)c1ccccc1Oc1cc(OC/C=C/c2ccccc2)ncn1 [376 of Table I] | – | – | – | – | – | – | – | – | 4 (4=no disease) | 4 (4=no disease) | 4 (4=no disease) | 3 (3=trace-5% of disease on untreated plants) | 4 (4=no disease) | 4 (4=no disease) | 4 (4=no disease) | – | –
CO/C=C(/C(=O)OC)c1ccccc1Oc1cc(OCc2c(F)cccc2Cl)ncn1 [386 of Table I] | – | – | – | – | – | – | – | – | 4 (4=no disease) | 4 (4=no disease) | 4 (4=no disease) | 4 (4=no disease) | 4 (4=no disease) | 4 (4=no disease) | 4 (4=no disease) | 4 (4=no disease) | –
CO/C=C(/C(=O)OC)c1ccccc1Oc1cc(N(C=O)c2ccccc2O)ncn1 [392 of Table I] | 0^a (0=60-100% of disease on untreated plants) | 0^a (0=60-100% of disease on untreated plants) | 0^a (0=60-100% of disease on untreated plants) | 0^a (0=60-100% of disease on untreated plants) | 1^a (1=26-59% of disease on untreated plants) | 0^a (0=60-100% of disease on untreated plants) | 0^a (0=60-100% of disease on untreated plants) | 0^a (0=60-100% of disease on untreated plants) | – | – | – | – | – | – | – | – | –
CO/C=C(/C(=O)OC)c1ccccc1Oc1cc(OCc2ccccc2[N+](=O)[O-])ncn1 [375 of Table I] | – | – | – | – | – | – | – | – | 0 (0=60-100% of disease on untreated plants) | 4 (4=no disease) | 4 (4=no disease) | 4 (4=no disease) | 3 (3=trace-5% of disease on untreated plants) | 3 (3=trace-5% of disease on untreated plants) | 4 (4=no disease) | – | –
CO/C=C(/C(=O)OC)c1ccccc1Oc1cc(OCc2c(F)c(F)c(F)c(F)c2F)ncn1 [388 of Table I] | – | – | – | – | – | – | – | – | 4 (4=no disease) | 4 (4=no disease) | 4 (4=no disease) | 4 (4=no disease) | 4 (4=no disease) | 4 (4=no disease) | 4 (4=no disease) | 4 (4=no disease) | –
CO/C=C(/C(=O)OC)c1ccccc1Oc1cc(OCc2ccccc2C#N)ncn1 [389 of Table I] | 0^a (0=60-100% of disease on untreated plants) | 4^a (4=no disease) | 4^a (4=no disease) | 4^a (4=no disease) | 4^a (4=no disease) | 4^a (4=no disease) | 4^a (4=no disease) | 4^a (4=no disease) | – | – | – | – | – | – | – | – | –
CO/C=C(/C(=O)OC)c1ccccc1Oc1cc(OCCOc2ccc(C#N)cc2)ncn1 [390 of Table I] | – | – | – | – | – | – | – | – | 0 (0=60-100% of disease on untreated plants) | 3 (3=trace-5% of disease on untreated plants) | 1 (1=26-59% of disease on untreated plants) | 4 (4=no disease) | 4 (4=no disease) | 4 (4=no disease) | 4 (4=no disease) | 3 (3=trace-5% of disease on untreated plants) | –
CO/C=C(/C(=O)OC)c1ccccc1Oc1cc(OCC#Cc2ccccc2)ncn1 [387 of Table I] | – | – | – | – | – | – | – | – | 4 (4=no disease) | 4 (4=no disease) | 4 (4=no disease) | 4 (4=no disease) | 4 (4=no disease) | 4 (4=no disease) | 4 (4=no disease) | 4 (4=no disease) | –
CO/C=C(/C(=O)OC)c1ccccc1Oc1cc(OCCSc2ccccc2)ncn1 [391 of Table I] | – | – | – | – | – | – | – | – | 4 (4=no disease) | 4 (4=no disease) | 4 (4=no disease) | 3 (3=trace-5% of disease on untreated plants) | 4 (4=no disease) | 4 (4=no disease) | 4 (4=no disease) | 4 (4=no disease) | –
CO/C=C(/C(=O)OC)c1ccccc1Oc1cc(OCCCc2ccccc2Cl)ncn1 [384 of Table I] | – | – | – | – | – | – | – | – | 4 (4=no disease) | 4 (4=no disease) | 4 (4=no disease) | – | 4 (4=no disease) | 4 (4=no disease) | 4 (4=no disease) | 4 (4=no disease) | –
CO/C=C(/C(=O)OC)c1ccccc1Oc1cc(OCc2ccccc2C(F)(F)F)ncn1 [385 of Table I] | – | – | – | – | – | – | – | – | 4 (4=no disease) | 4 (4=no disease) | 4 (4=no disease) | – | 4 (4=no disease) | 4 (4=no disease) | 4 (4=no disease) | 4 (4=no disease) | –
CO/C=C(/C(=O)OC)c1ccccc1Oc1cc(Sc2nc3ccccc3s2)ncn1 [530 of Table I] | – | – | – | – | – | – | – | – | 4 (4=no disease) | – | – | 0 (0=60-100% of disease on untreated plants) | 4 (4=no disease) | 4 (4=no disease) | 3 (3=trace-5% of disease on untreated plants) | 4 (4=no disease) | 4 (4=no disease)
